US8927504B2, “Combined use of dipeptidyl peptidase 4 inhibitor and sweetener” (Mitsubishi Tanabe Pharma Corporation, priority 2007, dated 2015)

Tests used:
active GLP-1 in plasma [1] = experiment: GLP-1 secretion-stimulating action by combined use of DPP4 inhibitor and sweetener (2), Example 4; assay type: in vivo, mouse; conditions: 1 hour after dosing, relative to 100 for Compound A′ and fructooligosaccharide 6 g/kg, C57BL/6J mice
Procedure: Male C57BL/6J mice (Clea Japan, Inc.) (7-week-old at time of use) were used in the test.
These study animals were used in the test after first fasting starting on the night prior to the test and then grouping according to body weight. The animals were orally administered test DPP4 inhibitor (or purified water as a control) (10 mL/kg). At 30 minutes after administration, the animals were then orally administered (10 mL/kg) a solution of test sweetener (or purified water as a control) followed by collecting blood samples at 0, 30, 60, 180 and 300 minutes after administration. These samples were then measured for concentrations of active GLP-1 in plasma.
Measurement of plasma active GLP-1 concentrations and analysis and testing of the measurement results were carried out in the same manner as (1) of Example 1 above.
Fructooligosaccharide (Meiji Seika Kaisha Ltd.), kestose (Meiji Seika Kaisha Ltd., GF2), raffinose (Wako Pure Chemical Industries, Ltd.), melibiose (Wako Pure Chemical Industries, Ltd.), xylooligosaccharide (Suntory Ltd.), xylose (Wako Pure Chemical Industries, Ltd.), xylitol (Wako Pure Chemical Industries, Ltd.), sorbitol (Wako Pure Chemical Industries, Ltd.), D-mannitol (Wako Pure Chemical Industries, Ltd.), erythritol (Wako Pure Chemical Industries, Ltd.), maltitol (Hayashibara Biochemical Laboratories, Inc.), sucralose (San-Ei Gen F.F.I., Inc.) or acesulfame K (Wako Pure Chemical Industries, Ltd.) was used as sweetener and administered orally (10 mL/kg) at 6 g/kg, 3 g/kg or 1 g/kg.
In addition, (2S)-2-cyano-1-[trans-4-(dimethylaminocarbonyl)cyclohexylamino]acetylpyrrolidine benzenesulfonate (hereafter referred to as Compound A′) as DPP4 inhibitor (or purified water as a control) was used at 10 mg/kg and administered orally (10 mL/kg).
Blood active GLP-1 level-increasing action was tested for the cases of combined use of DPP4 inhibitor and each type of sweetener in accordance with the method described in (1) above (n=4 to 5 animals per group).
Blood active GLP-1 concentrations (1 hour after dosing) in the groups dosed with both each type of sweetener (6 g/kg, 3 g/kg or 1 g/kg) and Compound A′ (10 mg/kg) were represented as relative values with respect to blood active GLP-1 concentrations (1 hour after dosing) in the group dosed with fructooligosaccharide (6 g/kg) and Compound A′.

[2] = Body weight-reducing test using DIO mice (3), Example 7; assay type: in vivo, mouse; conditions: for Body weight gain After 8 days / Body weight gain After 15 days: sweetener in feed at 5 w/w % combined with Compound A′ in feed at 10 mg/100 g, high fat diet-fed C57BL/6J mice, mean ± SEM, n = 7
Procedure: Testing was carried out in the same manner as (1) of Example 3 above. High fat diet-fed, male C57BL/6J mice housed until age 16 weeks were used in the test.
The study animals were used in the test after first grouping according to body weight.
The animals were administered test DPP4 inhibitor and test sweetener in-feed for up to 15 days. Body weights and food intake were measured over time after the start of administration of the test substances.
Sorbitol (Wako Pure Chemical Industries, Ltd.) or erythritol (Wako Pure Chemical Industries, Ltd.) was used as sweetener and each was administered in-feed at 5 w/w %. In addition, Compound A′ was administered as DPP4 inhibitor in-feed at 10 mg/100 g. Body weight reducing effect was tested for the cases of combined use of each of these sweeteners and DPP4 inhibitor in accordance with the method described in (1) above (n=7 animals per group).

GLP-1 = conditions: Shima et al., Acta Endocrinologica 1990; cited from earlier work
active GLP-1 in plasma [3] = experiment: GLP-1 secretion-stimulating action by combined use of DPP4 inhibitor and sweetener (3), Example 5; assay type: in vivo, mouse; conditions: C57BL/6J mice, mean ± SEM, n = 5
Procedure: Purified water was administered orally (10 mL/kg) as a control.
D-mannitol (Wako Pure Chemical Industries, Ltd.) at 3 g/kg, melibiose (Wako Pure Chemical Industries, Ltd.) at 6 g/kg or acesulfame K (Wako Pure Chemical Industries, Ltd.) at 3 g/kg was used as sweetener and administered orally (10 mL/kg). Purified water was administered orally (10 mL/kg) as a control.

[4] = Body weight-reducing test using DIO mice (2), Example 6; assay type: in vivo, mouse; conditions: for Body weight gain after 12 days / Body weight gain after 13 days: high fat diet-fed C57BL/6J mice, mean ± SEM, n = 9; for fat mass (g) as compared with the control group / lean mass (g) in comparison with the control group / body weights as compared with the control group: sweetener 5 w/w % combined with Compound A′ 10 mg/100 g in-feed; for fat mass (g) as compared with the control group / lean mass (g) in comparison with the control group: body composition 15 days after dosing; for body weights as compared with the control group: each of days 2 to 13 (or day 12) after dosing
Procedure: Testing was carried out in the same manner as (1) of Example 3 above. High fat diet-fed, male C57BL/6J mice housed until age 14 to 22 weeks were used in the test.
The study animals were used in the test after first grouping according to body weight and blood sugar level.
The animals were administered test DPP4 inhibitor and test sweetener in-feed for up to 15 days.
Body weights and food intake were measured over time after the start of administration of the test substances. Testing and analysis of measurement results were carried out in the same manner as (1) of Example 3 above.
In addition, in the case body weight reducing effect was observed, body composition was measured in the same manner as (1) of Example 3 above.
D-mannitol (Wako Pure Chemical Industries, Ltd.), melibiose (Wako Pure Chemical Industries, Ltd.) or acesulfame K (Wako Pure Chemical Industries, Ltd.) was used as sweetener and each was administered in-feed at 5 w/w %. In addition, Compound A′ was administered as DPP4 inhibitor in-feed at 10 mg/100 g.
Body weight reducing-effect was tested for the cases of combined use of each of these sweeteners and DPP4 inhibitor in accordance with the method described in (1) above (n=9 animals per group).

[5] = sweetener 3 g/kg orally combined with Compound A′ 10 mg/kg orally
[6] = sweetener 6 g/kg orally combined with Compound A′ 10 mg/kg orally
[7] = sweetener 5 w/w % combined with Compound A′ 10 mg/100 g in-feed
[8] = sweetener alone, separate tests
[9] = DPP4 inhibitor 10 mg/kg orally combined with acesulfame K 3 g/kg orally
[10] = Compound A′ alone in feed at 10 mg/100 g
[11] = sweetener 3 g/kg orally alone (purified water instead of DPP4 inhibitor)
[12] = sweetener alone 5 w/w % in-feed
[13] = sweetener alone in feed at 5 w/w %
[14] = sweetener in feed at 5 w/w % combined with Compound A′ in feed at 10 mg/100 g

OC[C@@H](O)[C@@H](O)[C@H](O)[C@@H](O)CO [Sorbitol, sorbitol]
Plasma active GLP-1 concentration (relative value) (active GLP-1 in plasma [1]; [5]): 286 | Plasma active GLP-1 concentration (relative value) (active GLP-1 in plasma [1]; [6]): 863 | body weights as compared with the control group [2, 7]: decreases in body weights were observed | body weights as compared with the control group [2, 8]: decreases in body weights were not observed | Body weight gain After 8 days [2]: -0.7 ± 0.4 g | Body weight gain After 15 days [2]: 0.8 ± 0.3 g

OC[C@H]1O[C@H](O[C@H]2[C@H](O)[C@@H](O)C(O)O[C@@H]2CO)[C@H](O)[C@@H](O)[C@@H]1O (mixture of isomers) [maltose]
blood GLP-1 levels following administration (GLP-1): blood GLP-1 levels are increased

O=C[C@H](O)[C@@H](O)[C@@H](O)[C@H](O)CO [D-galactose]
blood GLP-1 levels following administration (GLP-1): blood GLP-1 levels are increased

OC[C@H]1O[C@@](CO)(OC[C@@]2(O[C@H]3O[C@H](CO)[C@@H](O)[C@H](O)[C@H]3O)O[C@H](CO)[C@@H](O)[C@@H]2O)[C@@H](O)[C@@H]1O [Kestose, glucose-1,2-fructose-1,2-fructose]
Plasma active GLP-1 concentration (relative value) (active GLP-1 in plasma [1]; [6]): 166

CN(C)C(=O)[C@H]1CC[C@H](NCC(=O)N2CCC[C@H]2C#N)CC1.O=S(=O)(O)c1ccccc1 (relative stereo) [Compound A′, (2S)-2-cyano-1-[trans-4-(dimethylaminocarbonyl)cyclohexylamino]acetylpyrrolidine benzenesulfonate]
Increase in AUC of Plasma active GLP-1 (active GLP-1 in plasma [3]; DPP4 inhibitor 10 mg/kg orally combined with D-mannitol 3 g/kg orally): 170 ± 27 pM·h | Increase in AUC of Plasma active GLP-1 (active GLP-1 in plasma [3]; [9]): 142 ± 11 pM·h | Increase in AUC of Plasma active GLP-1 (active GLP-1 in plasma [3]; DPP4 inhibitor 10 mg/kg orally combined with melibiose 6 g/kg orally): 228 ± 32 pM·h | body weight as compared with the control group ([4]; Compound A′ alone 10 mg/100 g in-feed): no changes in body weight as compared with the control group | Body weight gain after 12 days [4, 10]: 0.6 ± 0.1 g | Body weight gain after 13 days [4, 10]: 2.0 ± 0.3 g

OC[C@H]1O[C@H](OC[C@H]2O[C@H](O[C@]3(CO)O[C@H](CO)[C@@H](O)[C@@H]3O)[C@H](O)[C@@H](O)[C@@H]2O)[C@H](O)[C@@H](O)[C@H]1O [Raffinose, β-D-fructofuranosyl α-D-galactopyranosyl-(1→6)-α-D-glucopyranoside]
Plasma active GLP-1 concentration (relative value) (active GLP-1 in plasma [1]; [6]): 77

OC[C@@H](O)[C@@H](O)[C@H](O)[C@H](O)CO [D-mannitol]
Plasma active GLP-1 concentration (relative value) (active GLP-1 in plasma [1]; [5]): 160 | Plasma active GLP-1 concentration (relative value) (active GLP-1 in plasma [1]; [6]): 742 | Increase in AUC of Plasma active GLP-1 (active GLP-1 in plasma [3]; [11]): 85 ± 1 pM·h | fat mass (g) as compared with the control group [4]: decreased significantly | lean mass (g) in comparison with the control group [4]: no change in lean mass | body weights as compared with the control group [4]: body weights significantly decreased as compared with the control group | body weight as compared with the control group [4, 12]: no significant differences as compared with the control group | Body weight gain after 13 days [4, 13]: 1.1 ± 0.5 g | Body weight gain after 13 days [4, 14]: 0.2 ± 0.7 g

O=C[C@H](O)[C@@H](O)[C@H](O)[C@H](O)CO [D-glucose]
blood GLP-1 levels following administration (GLP-1): blood GLP-1 levels are increased

O=C[C@H](O)[C@@H](O)[C@H](O)[C@H](O)CO[C@H]1O[C@H](CO)[C@H](O)[C@H](O)[C@H]1O [Melibiose, α-D-galactopyranosyl-(1→6)-D-glucose]
Plasma active GLP-1 concentration (relative value) (active GLP-1 in plasma [1]; [6]): 454 | Increase in AUC of Plasma active GLP-1 (active GLP-1 in plasma [3]; sweetener 6 g/kg orally alone (purified water instead of DPP4 inhibitor)): 95 ± 2 pM·h | body weights as compared with the control group [4]: body weights significantly decreased as compared with the control group | body weight as compared with the control group [4, 12]: no significant differences as compared with the control group | Body weight gain after 13 days [4, 13]: 2.2 ± 0.2 g | Body weight gain after 13 days [4, 14]: 0.9 ± 0.4 g

OC[C@H]1O[C@@](CO)(O[C@H]2O[C@H](CO)[C@@H](O)[C@H](O)[C@H]2O)[C@@H](O)[C@@H]1O [sucrose]
blood GLP-1 levels following administration (GLP-1): blood GLP-1 levels are increased

OC[C@H]1O[C@H](O[C@]2(CCl)O[C@H](CCl)[C@@H](O)[C@@H]2O)[C@H](O)[C@@H](O)[C@H]1Cl [Sucralose, sucralose]
Plasma active GLP-1 concentration (relative value) (active GLP-1 in plasma [1]; [6]): 166

CCC(=O)N1CCN(C2CCC(C)(NCC(=O)N3CCC[C@H]3C#N)CC2)CC1 (stereo partly drawn) [Compound B, (2S)-2-cyano-1-[t-4-(4-propionyl-1-piperazinyl)-1-methyl-r-1-cyclohexylamino]acetyl pyrrolidine]
Increase in AUC of Plasma active GLP-1 (active GLP-1 in plasma [3]; [9]): 153 ± 14 pM·h

CC1=CC(=O)NS(=O)(=O)O1 [Acesulfame K, acesulfame potassium]
Plasma active GLP-1 concentration (relative value) (active GLP-1 in plasma [1]; sweetener 1 g/kg orally combined with Compound A′ 10 mg/kg orally): 149 | Plasma active GLP-1 concentration (relative value) (active GLP-1 in plasma [1]; [5]): 377 | Increase in AUC of Plasma active GLP-1 (active GLP-1 in plasma [3]; [11]): 51 ± 1 pM·h | fat mass (g) as compared with the control group [4]: decreased significantly | lean mass (g) in comparison with the control group [4]: no change in lean mass | body weights as compared with the control group [4]: body weights significantly decreased as compared with the control group | body weight as compared with the control group [4, 12]: no significant differences as compared with the control group | Body weight gain after 12 days [4, 13]: -0.5 ± 0.3 g | Body weight gain after 12 days [4, 14]: -1.0 ± 0.4 g

OC[C@@H](O)[C@@H](O)CO [Erythritol, erythritol]
Plasma active GLP-1 concentration (relative value) (active GLP-1 in plasma [1]; [5]): 147 | Plasma active GLP-1 concentration (relative value) (active GLP-1 in plasma [1]; [6]): 461 | body weights as compared with the control group [2, 7]: decreases in body weights were observed | body weights as compared with the control group [2, 8]: decreases in body weights were not observed | Body weight gain After 8 days [2]: 0.2 ± 0.1 g | Body weight gain After 15 days [2]: 0.9 ± 0.3 g
